The results in this text go back to ChEMBL document CHEMBL4507275, “Data for DCP probe BI-2545” (2021).

Usually Ki stands for the dissociation constant of the complex between target and ligand, obtained from inhibition or displacement. The term inhibition denotes the drop in the measured response relative to a control, in per cent. In general, IC50 refers to the point on the concentration scale where inhibition reaches its midpoint.

Activity calls are given as the source filed them. The calls are words filed in the database; no cut-off is given here.

The target in data set [1] is 5-hydroxytryptamine receptor 2A (Homo sapiens, UniProt P28223). Kind of data set: GPCRScan assay: inhibition of 5-HT2A. Details: radioligand conc. used [nm] 1.2 – 2.4, parental cells HEKT.
Chain of 5-hydroxytryptamine receptor 2A (P28223 whole entry): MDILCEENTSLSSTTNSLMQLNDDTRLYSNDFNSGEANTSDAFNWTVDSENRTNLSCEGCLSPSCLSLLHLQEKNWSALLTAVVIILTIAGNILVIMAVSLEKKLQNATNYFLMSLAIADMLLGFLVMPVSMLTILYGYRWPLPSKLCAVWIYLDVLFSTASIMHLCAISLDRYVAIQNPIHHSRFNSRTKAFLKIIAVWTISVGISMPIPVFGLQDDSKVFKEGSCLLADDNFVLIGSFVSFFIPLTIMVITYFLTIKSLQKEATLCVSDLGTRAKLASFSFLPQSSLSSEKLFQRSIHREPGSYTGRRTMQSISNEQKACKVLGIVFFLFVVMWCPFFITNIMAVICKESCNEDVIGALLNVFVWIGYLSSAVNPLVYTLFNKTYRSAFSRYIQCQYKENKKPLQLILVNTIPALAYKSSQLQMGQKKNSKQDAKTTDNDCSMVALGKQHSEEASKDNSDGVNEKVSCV
For data set [2], the target named is Mitogen-activated protein kinase 8 (Homo sapiens) (UniProt P45983). The note with it: Compound concentration 1000.0 nM.
Chain of Mitogen-activated protein kinase 8 (Homo sapiens) (P45983 whole entry): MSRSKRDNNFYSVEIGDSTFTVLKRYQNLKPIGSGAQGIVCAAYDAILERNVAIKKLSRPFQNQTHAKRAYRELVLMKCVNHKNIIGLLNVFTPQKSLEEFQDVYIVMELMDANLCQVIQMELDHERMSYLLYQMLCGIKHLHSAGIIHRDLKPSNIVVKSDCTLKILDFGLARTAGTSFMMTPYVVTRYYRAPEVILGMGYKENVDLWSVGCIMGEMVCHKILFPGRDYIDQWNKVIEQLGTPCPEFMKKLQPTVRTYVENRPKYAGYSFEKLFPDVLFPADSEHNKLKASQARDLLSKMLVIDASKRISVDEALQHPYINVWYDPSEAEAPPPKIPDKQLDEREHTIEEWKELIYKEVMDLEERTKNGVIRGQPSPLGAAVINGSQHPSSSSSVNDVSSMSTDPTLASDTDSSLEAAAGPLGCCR
The target of data set [3] is 3',5'-cyclic-AMP phosphodiesterase 4D (Homo sapiens) (UniProt Q08499). In words: PDE4D2 Cerep selectivity data (BI). The note with it: Compound concentration 10.0 uM.
In data set [4] the target is Muscarinic acetylcholine receptor M3 (Homo sapiens) (UniProt P20309). In words: M3/H Cerep selectivity data (BI). Conditions: Compound concentration 10.0 uM.
In data set [5] the target is Dual specificity tyrosine-phosphorylation-regulated kinase 2 (Homo sapiens) (UniProt Q92630). Conditions: Compound concentration 1000.0 nM.
Chain of Dual specificity tyrosine-phosphorylation-regulated kinase 2 (Homo sapiens) (Q92630 whole entry): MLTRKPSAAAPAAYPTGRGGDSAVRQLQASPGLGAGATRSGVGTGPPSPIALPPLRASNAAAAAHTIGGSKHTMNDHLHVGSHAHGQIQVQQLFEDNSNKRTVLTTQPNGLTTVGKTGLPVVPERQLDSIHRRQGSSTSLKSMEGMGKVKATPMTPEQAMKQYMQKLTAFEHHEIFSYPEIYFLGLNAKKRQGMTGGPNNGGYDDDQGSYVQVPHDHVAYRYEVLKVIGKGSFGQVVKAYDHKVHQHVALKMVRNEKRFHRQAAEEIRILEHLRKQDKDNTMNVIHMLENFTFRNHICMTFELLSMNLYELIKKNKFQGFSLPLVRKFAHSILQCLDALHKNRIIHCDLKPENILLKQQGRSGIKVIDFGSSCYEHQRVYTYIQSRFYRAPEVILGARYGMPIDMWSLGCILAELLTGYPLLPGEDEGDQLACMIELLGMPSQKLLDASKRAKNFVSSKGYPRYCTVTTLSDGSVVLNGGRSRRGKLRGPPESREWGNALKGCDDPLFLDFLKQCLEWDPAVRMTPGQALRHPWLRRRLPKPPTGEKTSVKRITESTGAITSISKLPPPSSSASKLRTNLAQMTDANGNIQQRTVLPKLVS
For data set [6], the target named is Prostaglandin G/H synthase 1 (Homo sapiens) (UniProt P23219). In words: COX-1 Cerep selectivity data (BI). Conditions: Compound concentration 10.0 uM.
Chain of Prostaglandin G/H synthase 1 (Homo sapiens) (P23219 whole entry): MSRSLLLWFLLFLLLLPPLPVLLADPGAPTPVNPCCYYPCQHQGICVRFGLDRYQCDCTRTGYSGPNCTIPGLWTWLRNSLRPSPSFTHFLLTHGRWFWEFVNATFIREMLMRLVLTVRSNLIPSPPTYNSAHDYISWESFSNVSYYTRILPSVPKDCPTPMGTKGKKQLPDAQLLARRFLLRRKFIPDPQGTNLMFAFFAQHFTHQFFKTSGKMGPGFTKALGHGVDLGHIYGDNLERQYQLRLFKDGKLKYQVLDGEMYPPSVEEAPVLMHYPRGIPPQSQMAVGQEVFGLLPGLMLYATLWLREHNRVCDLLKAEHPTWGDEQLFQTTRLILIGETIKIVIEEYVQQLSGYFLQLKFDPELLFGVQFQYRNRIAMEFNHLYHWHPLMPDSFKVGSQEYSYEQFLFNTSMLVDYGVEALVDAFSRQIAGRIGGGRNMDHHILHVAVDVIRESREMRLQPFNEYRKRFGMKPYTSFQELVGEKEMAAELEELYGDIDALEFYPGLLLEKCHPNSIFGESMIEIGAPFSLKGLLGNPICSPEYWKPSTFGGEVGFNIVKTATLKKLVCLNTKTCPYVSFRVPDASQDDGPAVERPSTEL
Data set [7] deals with Angiotensin-converting enzyme (Homo sapiens) (UniProt P12821). In words: ACE(HU_AMTCH400) Cerep selectivity data (BI). The note with it: Compound concentration 10.0 uM.
For data set [8], the target named is Histamine H1 receptor (Homo sapiens) (UniProt P35367). In words: H1/PYRIL/HS Cerep selectivity data (BI). Conditions: Compound concentration 10.0 uM.
The target in data set [9] is MAO-A (amine oxidase [flavin-containing] A) (Rattus norvegicus, UniProt P21396). In words: MAO-A_ANTAG Cerep selectivity data (BI). Also noted: mode of action antagonist; scale not given: the % may be the effect or the level left. The note with it: compound concentration 10 uM, read-out: % Ctrl.
The target in data set [10] is T1, 5-hydroxytryptamine receptor 3A (Homo sapiens) (UniProt P46098).
T1 sequence (whole entry): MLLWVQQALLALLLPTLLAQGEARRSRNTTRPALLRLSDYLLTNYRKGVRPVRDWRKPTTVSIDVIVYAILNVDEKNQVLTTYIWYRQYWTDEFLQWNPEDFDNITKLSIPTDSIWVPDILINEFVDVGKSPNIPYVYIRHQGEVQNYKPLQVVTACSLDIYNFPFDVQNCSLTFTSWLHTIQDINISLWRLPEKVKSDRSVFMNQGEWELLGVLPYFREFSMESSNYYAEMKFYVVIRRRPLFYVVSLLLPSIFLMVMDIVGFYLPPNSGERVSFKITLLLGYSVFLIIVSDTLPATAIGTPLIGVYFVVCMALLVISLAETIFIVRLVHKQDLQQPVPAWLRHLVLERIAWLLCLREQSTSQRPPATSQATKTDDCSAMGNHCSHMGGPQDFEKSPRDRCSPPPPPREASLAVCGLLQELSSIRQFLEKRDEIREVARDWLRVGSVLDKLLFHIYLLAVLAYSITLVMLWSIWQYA
Kind of data set: 5HT3/H Cerep selectivity data (BI). Conditions: Compound concentration 10.0 uM.

The target of data set [11] is L-type voltage-gated calcium channel (dihydropyridine site), Cav1.2 alpha-1C (Rattus norvegicus, UniProt P22002). Kind of data set: CA+/DHPSI/R Cerep selectivity data (BI). The note with it: rat brain, probe [3H](+)PN200-110, compound concentration 10 uM, read-out: % Ctrl. Details: mode of action inhibitor.
The target of data set [12] is 5-hydroxytryptamine receptor 1E (Homo sapiens) (UniProt P28566). Conditions: Compound concentration 10.0 uM.
Chain of 5-hydroxytryptamine receptor 1E (Homo sapiens) (P28566 whole entry): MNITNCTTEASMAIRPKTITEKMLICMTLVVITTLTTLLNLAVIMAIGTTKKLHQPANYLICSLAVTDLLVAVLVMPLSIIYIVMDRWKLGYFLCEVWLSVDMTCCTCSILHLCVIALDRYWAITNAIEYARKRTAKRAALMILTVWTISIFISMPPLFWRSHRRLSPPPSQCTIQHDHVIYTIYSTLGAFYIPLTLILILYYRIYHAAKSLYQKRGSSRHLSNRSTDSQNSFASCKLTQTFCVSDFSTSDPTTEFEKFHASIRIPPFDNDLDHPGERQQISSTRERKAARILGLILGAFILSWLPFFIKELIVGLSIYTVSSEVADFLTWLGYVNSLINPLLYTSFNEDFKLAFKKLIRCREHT
In data set [13] the target is Gamma-aminobutyric acid receptor subunit alpha-1 (Rattus norvegicus) (UniProt P62813). In words: BZD/CENTR/R Cerep selectivity data (BI). The note with it: Compound concentration 10.0 uM.
The target of data set [14] is D(2) dopamine receptor (Homo sapiens) (UniProt P14416). Conditions: Compound concentration 10.0 uM.
Chain of D(2) dopamine receptor (Homo sapiens) (P14416 whole entry): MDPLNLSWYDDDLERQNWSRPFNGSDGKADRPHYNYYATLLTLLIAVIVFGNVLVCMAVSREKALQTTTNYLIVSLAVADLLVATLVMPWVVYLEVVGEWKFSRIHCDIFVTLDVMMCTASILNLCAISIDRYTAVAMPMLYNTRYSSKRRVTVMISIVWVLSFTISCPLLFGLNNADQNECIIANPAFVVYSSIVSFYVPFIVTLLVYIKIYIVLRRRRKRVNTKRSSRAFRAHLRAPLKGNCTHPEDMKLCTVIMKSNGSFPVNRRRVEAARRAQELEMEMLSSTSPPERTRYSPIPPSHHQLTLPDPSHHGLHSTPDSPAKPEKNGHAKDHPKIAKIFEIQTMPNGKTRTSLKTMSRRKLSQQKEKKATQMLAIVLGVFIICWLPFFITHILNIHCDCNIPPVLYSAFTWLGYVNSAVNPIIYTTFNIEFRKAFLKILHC
For data set [15], the target named is T2, 5-hydroxytryptamine receptor 1A (Homo sapiens) (UniProt P08908).
T2 sequence (whole entry): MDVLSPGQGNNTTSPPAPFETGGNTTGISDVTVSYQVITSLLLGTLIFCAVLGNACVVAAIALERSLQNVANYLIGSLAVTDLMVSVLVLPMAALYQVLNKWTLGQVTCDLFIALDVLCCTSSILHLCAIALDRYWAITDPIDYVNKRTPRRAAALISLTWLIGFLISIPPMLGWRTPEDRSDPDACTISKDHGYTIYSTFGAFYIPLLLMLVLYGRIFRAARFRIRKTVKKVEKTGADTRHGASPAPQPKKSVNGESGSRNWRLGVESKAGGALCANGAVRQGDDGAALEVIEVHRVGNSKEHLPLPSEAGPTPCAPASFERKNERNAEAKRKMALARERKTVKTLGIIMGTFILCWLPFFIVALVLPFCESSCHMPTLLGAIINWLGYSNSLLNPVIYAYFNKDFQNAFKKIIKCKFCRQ
Kind of data set: 5HT1A/H Cerep selectivity data (BI). The note with it: Compound concentration 10.0 uM.

Data set [16] concerns the target Fibroblast growth factor receptor 3 (Homo sapiens) (UniProt P22607). The note with it: Compound concentration 1000.0 nM.
Data set [17] has as its target Beta-2 adrenergic receptor (Homo sapiens) (UniProt P07550). In words: BETA2/HUM Cerep selectivity data (BI). The note with it: filed as antagonist, Compound concentration 10.0 uM.
Data set [18] addresses Muscarinic acetylcholine receptor M1 (Homo sapiens) (UniProt P11229). In words: M1/H Cerep selectivity data (BI). Conditions: Compound concentration 10.0 uM.
Data set [19] deals with Tyrosine-protein kinase Lck (Homo sapiens) (UniProt P06239). Kind of data set: LCK_CE Cerep selectivity data (BI). The note with it: Compound concentration 10.0 uM.
Chain of Tyrosine-protein kinase Lck (Homo sapiens) (P06239 2-509 limits assumed): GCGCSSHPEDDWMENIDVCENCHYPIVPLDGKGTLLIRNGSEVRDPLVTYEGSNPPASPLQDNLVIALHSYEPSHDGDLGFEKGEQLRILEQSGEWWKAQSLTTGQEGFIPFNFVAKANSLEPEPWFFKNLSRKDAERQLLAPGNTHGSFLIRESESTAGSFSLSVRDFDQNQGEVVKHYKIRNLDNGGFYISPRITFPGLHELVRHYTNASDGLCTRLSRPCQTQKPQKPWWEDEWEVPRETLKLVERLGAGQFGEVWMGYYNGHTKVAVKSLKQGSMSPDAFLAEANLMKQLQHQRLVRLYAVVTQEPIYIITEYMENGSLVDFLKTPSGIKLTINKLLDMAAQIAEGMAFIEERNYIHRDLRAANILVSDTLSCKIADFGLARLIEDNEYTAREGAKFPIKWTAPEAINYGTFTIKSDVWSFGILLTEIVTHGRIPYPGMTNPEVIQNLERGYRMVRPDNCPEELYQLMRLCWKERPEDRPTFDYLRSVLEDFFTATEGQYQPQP
The target in the next data set is hERG (KCNH2) (Homo sapiens, UniProt Q12809). In words: HERG_DOFETILIDE Cerep selectivity data (BI). Details: mode of action inhibitor. Conditions: probe [3H] Dofetilide, compound concentration 10 uM, read-out: % Ctrl.
In data set [20] the target is T3, Alpha-1A adrenergic receptor (Homo sapiens) (UniProt P35348).
T3 sequence (whole entry): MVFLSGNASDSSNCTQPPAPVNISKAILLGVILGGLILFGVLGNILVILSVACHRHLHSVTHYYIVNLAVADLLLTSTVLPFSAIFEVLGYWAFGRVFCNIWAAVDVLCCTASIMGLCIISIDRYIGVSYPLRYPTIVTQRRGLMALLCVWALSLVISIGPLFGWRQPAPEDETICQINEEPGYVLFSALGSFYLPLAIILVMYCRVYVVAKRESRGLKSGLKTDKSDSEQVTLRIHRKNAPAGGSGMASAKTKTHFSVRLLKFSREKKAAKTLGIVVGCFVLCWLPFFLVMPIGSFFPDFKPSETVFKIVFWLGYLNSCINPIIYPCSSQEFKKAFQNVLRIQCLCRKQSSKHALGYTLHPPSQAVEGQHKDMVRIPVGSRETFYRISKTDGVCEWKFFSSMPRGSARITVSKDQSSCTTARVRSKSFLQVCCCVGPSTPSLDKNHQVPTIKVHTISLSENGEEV
In words: ALPHA1AH_ANTAG Cerep selectivity data (BI). Conditions: filed as antagonist, Compound concentration 10.0 uM.

Data set [21] concerns the target Sodium-dependent dopamine transporter (Homo sapiens) (UniProt Q01959). Conditions: Compound concentration 10.0 uM.
Data set [22] has as its target Androgen receptor (Homo sapiens) (UniProt P10275). In words: ANDROGEN/H Cerep selectivity data (BI). The note with it: Compound concentration 10.0 uM.
A further data set has as its target Autotaxin (Homo sapiens, UniProt Q13822). Kind of data set: Biochemical assay: measurement of LPA (human).
In data set [23] the target is Beta-2 adrenergic receptor (Homo sapiens) (UniProt P07550). The note with it: Compound concentration 10.0 uM.
Chain of Beta-2 adrenergic receptor (Homo sapiens) (P07550 whole entry, looked up): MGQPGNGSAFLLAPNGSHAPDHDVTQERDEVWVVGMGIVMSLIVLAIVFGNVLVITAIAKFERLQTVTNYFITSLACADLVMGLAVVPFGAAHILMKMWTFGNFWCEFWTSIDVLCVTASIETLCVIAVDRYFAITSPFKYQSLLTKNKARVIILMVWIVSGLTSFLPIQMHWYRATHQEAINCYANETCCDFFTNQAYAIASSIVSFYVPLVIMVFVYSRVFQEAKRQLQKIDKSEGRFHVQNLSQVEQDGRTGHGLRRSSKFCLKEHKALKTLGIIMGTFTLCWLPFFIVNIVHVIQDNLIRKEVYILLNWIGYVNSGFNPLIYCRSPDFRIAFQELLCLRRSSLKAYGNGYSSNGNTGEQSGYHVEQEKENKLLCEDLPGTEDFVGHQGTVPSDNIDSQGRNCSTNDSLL

Chain of Fibroblast growth factor receptor 3 (Homo sapiens) (P22607 23-806 limits assumed): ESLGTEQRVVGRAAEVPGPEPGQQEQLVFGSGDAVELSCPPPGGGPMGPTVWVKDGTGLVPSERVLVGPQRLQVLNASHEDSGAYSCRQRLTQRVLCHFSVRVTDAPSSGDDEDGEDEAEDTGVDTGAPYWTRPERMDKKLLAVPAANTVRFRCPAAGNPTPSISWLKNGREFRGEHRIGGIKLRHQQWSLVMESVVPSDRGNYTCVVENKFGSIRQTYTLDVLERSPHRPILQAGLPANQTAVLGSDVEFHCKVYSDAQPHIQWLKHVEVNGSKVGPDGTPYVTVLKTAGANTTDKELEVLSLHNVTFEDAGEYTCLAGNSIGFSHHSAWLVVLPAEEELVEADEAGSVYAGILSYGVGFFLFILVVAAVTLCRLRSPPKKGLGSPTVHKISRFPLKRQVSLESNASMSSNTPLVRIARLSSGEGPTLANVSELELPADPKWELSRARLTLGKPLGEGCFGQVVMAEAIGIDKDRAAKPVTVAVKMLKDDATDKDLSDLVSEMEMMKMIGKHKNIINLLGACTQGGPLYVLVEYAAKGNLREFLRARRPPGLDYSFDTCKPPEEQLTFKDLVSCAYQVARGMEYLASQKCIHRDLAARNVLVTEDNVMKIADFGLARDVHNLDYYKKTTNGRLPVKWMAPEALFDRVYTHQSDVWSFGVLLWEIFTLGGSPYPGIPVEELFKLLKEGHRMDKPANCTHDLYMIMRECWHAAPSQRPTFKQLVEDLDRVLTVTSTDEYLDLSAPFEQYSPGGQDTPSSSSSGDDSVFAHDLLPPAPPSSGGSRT

For `O=C(NC[C@@H]1[C@H]2CN(C(=O)OCc3cc(C(F)(F)F)cc(C(F)(F)F)c3)C[C@@H]12)c1ccc2[nH]nnc2c1` [BI 2545], the inhibition constant Ki in [1] amounted to 8.68 µM. Also, the residual activity was 90% in data set [2]; 98% in data set [3]; 100% in data set [4]; 77% in data set [5]; 82% in data set [6]; 109% in [7]. Also, the residual activity in data set [8] was 101%; in data set [10] it was 94%; in data set [13], 136%; in [15] it was 83%; in [16], 82%; in data set [17], 96%. In addition, the residual activity in [18] was 97%; in data set [19], 96%; in [20] it was 87%; in [22], 103%. Besides, the activity at 10 µM in data set [9] was 70% (not active); in [11], 20% (active); on hERG (KCNH2), 71% (not active). The inhibition in [12] is 33.6%; in data set [14], 7.71%; in [21], -2.65%.

As to `Cc1nccc(COC(=O)N2C[C@@H]3[C@@H](CNC(=O)c4ccc5[nH]nnc5c4)[C@@H]3C2)n1` [BI 3017], the results for the residual activity in data set [2], in data set [5] and in data set [16] were 84%, 94% and 93%, respectively. On Autotaxin, the IC50 is recorded as 8.9 µM (not active). The figures for the inhibition in [12] and in data set [23] were 31.8% and -9.93%, respectively.
